Patent US7244738B2, “Arylamine-substituted quinazolinone compounds useful as alpha 1A/B adrenergic receptor antagonists” (Roche Palo Alto LLC, priority 2003, dated 2007)

What was measured:
alpha1D adrenoceptor = molecular target: T1, alpha1D adrenoceptor (Homo sapiens, UniProt P25100); experiment: [3H]prazosin binding (alpha1-adrenoceptor) assay, membranes of transfected CHO-K1 cells; details: transfected CHO-K1 cell membranes, read-out: pKi alpha 1D (converted)
T1 construct: expressed in transfected cells; host or cells: CHO-K1
T1 sequence (P25100 1-572): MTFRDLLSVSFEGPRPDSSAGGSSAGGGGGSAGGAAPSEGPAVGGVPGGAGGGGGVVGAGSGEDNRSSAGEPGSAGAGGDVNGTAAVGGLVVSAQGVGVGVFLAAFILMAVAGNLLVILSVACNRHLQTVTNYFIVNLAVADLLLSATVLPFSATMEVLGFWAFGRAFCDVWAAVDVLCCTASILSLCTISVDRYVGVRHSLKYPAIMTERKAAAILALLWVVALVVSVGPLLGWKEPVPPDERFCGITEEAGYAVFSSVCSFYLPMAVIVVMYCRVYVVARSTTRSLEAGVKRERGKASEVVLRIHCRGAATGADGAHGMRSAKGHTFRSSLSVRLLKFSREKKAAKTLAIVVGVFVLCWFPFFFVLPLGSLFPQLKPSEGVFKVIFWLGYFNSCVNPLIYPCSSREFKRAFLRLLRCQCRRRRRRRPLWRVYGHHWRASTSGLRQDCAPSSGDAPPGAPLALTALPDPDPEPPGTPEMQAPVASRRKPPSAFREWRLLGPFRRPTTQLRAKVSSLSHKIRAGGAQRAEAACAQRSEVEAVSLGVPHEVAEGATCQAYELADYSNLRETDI
Procedure: (§1) Example [^3H]prazosin Binding (Alpha1-Adrenoceptor) Assay
(§2) Alpha1A, alpha1B, and alpha1D adrenoceptor transfected CHO-K1 cells, prepared using the methods described by Chang et al., FEBS Lett. 1998, 422:279–283, were grown to confluence in T-162 tissue culture flasks in Ham's F-12 culture medium supplemented with 10% fetal bovine serum, geneticin (150 μg/mL) and streptomycin/penicillin (30 μg/mL/30 μg/mL) at 37° C. in 7% CO2. Cells were harvested by incubating with phosphate-buffered saline (PBS) containing 30 μM EDTA for 5–10 min at 37° C. Cells were pelleted by centrifuging at 500×g for 5 min, and the pelleted cells were homogenized (Polytron homogenizer) in 10 vols (w/v) of 50 mM Tris, 1 mM EDTA, (homogenisation buffer, pH 7.4 at 4° C.). The homogenate was centrifuged at 45,000×g for 20 min. The pellet was resuspended in the homogenizing buffer and rehomogenized. The resulting homogenate was centrifuged at 45,000×g for 20 min. The pellet was resuspended in 50 mM Tris buffer (pH 7.4 at 4° C.), aliquoted, frozen, and stored at −80° C. for further use.
(§3) The membranes were thawed at room temperature and diluted in assay buffer (50 mM Tris buffer at […]) at 37° C. and homogenized using the Polytron tissue disrupter. The membranes were incubated with the radioligand ([^3H]prazosin, NEN, 0.1–0.5 nM) and test compound at 37° C. for 30 min. The membranes were then filtered over polyethyleneimine-treated GF/B unifilter plates using a Packard Filtermate Harvester and washed with ice-cold 50 mM Tris-HCl, 1 mM EDTA buffer (3×3 sec. washes). Scintillation cocktail was added to the filter plates and bound radioligand determined by liquid scintillation spectrophotometry.
(§4) For each experiment, total binding (in the absence of any test or reference compounds) and non-specific binding (10 μM phentolamine) were determined. For each sample tested, the concentration producing 50% inhibition of binding (IC50) and Hill Slope (nH) was determined using iterative non-linear curve fitting techniques with Kaleidagraph (Synergy Software) or other appropriate software. If the radioligand KD was known, the inhibition dissociation constant (KI) of each ligand was determined according to the method of Cheng and Prusoff (Cheng, Y-C. and Prusoff, W. H., Biochem. Pharmacol., 1973, 22, 3099–3108).

alpha1B adrenoceptor = molecular target: T2, alpha1B adrenoceptor (Homo sapiens, UniProt P35368); experiment: as above; details: transfected CHO-K1 cell membranes, read-out: pKi alpha 1B (converted)
T2 construct: expressed in transfected cells; host or cells: CHO-K1
T2 sequence (P35368 1-520): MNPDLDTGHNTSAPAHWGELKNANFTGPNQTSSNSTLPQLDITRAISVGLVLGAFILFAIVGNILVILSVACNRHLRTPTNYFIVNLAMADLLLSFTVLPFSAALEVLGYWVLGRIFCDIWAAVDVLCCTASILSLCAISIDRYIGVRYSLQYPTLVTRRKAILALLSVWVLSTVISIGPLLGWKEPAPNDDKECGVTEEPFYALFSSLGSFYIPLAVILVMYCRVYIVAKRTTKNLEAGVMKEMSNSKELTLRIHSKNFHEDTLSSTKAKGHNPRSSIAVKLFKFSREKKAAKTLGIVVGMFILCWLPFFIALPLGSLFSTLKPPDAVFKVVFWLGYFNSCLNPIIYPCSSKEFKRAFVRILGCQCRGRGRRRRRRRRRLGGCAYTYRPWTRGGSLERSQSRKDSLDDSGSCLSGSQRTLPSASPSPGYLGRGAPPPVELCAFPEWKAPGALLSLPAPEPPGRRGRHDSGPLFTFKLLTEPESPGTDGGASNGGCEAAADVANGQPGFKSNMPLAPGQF
Procedure: as §1, §2, §3, §4

Alpha1A adrenoceptor = molecular target: T3, Alpha1A adrenoceptor (Homo sapiens, UniProt P35348); experiment: as above; details: transfected CHO-K1 cell membranes, read-out: pKi alpha 1A (converted)
T3 construct: expressed in transfected cells; host or cells: CHO-K1
T3 sequence (P35348 1-466): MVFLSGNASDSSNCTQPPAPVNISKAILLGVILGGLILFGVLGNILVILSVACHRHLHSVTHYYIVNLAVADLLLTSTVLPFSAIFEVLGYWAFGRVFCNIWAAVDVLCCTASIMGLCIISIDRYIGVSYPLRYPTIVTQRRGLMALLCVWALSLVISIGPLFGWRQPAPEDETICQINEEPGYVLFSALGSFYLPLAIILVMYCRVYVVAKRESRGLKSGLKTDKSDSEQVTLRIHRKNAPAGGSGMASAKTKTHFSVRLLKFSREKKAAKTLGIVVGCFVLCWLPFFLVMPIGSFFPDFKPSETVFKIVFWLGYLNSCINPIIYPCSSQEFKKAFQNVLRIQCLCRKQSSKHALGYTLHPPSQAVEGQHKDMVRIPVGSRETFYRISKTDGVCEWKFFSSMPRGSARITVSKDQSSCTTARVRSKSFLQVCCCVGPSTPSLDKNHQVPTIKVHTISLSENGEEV
Procedure: as §1, §2, §3, §4

anesthetized dog = experiment: Dog in vivo intraurethral and blood pressure assay; details: anesthetized male Mongrel dog, i.v. bolus, increasing doses
Procedure: Dog In Vivo Intraurethral and Blood Pressure Assay
The following describes an in vivo assay for measuring the relative effect of test compounds on hypogastric nerve stimulation-induced increases in intraurethral pressure and phenylephrine-induced increases in diastolic blood pressure in anesthetized dog.
Male Mongrel dogs (10 to 20 kg) were fasted for 12 to 18 hours and anesthetized with phenobarbital sodium (36 mg/kg, i.v.). An endotracheal tube was inserted and thereafter the lungs were mechanically ventilated with room air. The right femoral vein was isolated and cannulated with two polyethylene cannulae, one for the administration of a continuous infusion of phenobarbital sodium (5 to 10 mg/kg/hr) and the other for bolus administration of test substances. The right femoral artery was isolated and cannulated to the abdominal aorta with a fluid filled polyethylene cannula connected to an external pressure transducer for monitoring diastolic aortic pressure (DAP). The bladder was exposed via a ventral midline abdominal incision and emptied of urine through a 22 gauge needle. The bladder was cannulated through a stab incision with a water filled balloon catheter connected to an external pressure transducer for monitoring prostatic intraurethral pressure (IUP). The right hypogastric nerve (HGN) was carefully isolated and attached to a Dastre's electrode for nerve stimulation. […]

Ki (alpha1D adrenoceptor) [nM]	Ki (alpha1B adrenoceptor) [nM]	Ki (Alpha1A adrenoceptor) [nM]	melting point [°C]	SMILES	further results
69.2	0.891	7.41		COc1cc2[nH]c(NCc3cccc(N=C(C)N(C)C)c3)nc(=O)c2c(C)c1OC	
550	3.09	3.16		CCN(C)Cc1ccc(CN(C)c2nc(=O)c3c(OC)c(OC)c(OC)cc3[nH]2)cc1 [2-({4-[(ethyl-methyl-amino)-methyl]-benzyl}-methyl-amino)-5,6,7-trimethoxy-1H-quinazolin-4-one]	
141	3.72	1.55		COc1cc2[nH]c(N(C)Cc3cccc(C(C)N(C)C)c3)nc(=O)c2c(OC)c1OC (centres unmarked) [2-{[3-(1-Dimethylamino-ethyl)-benzyl]-methyl-amino}-5,6,7-trimethoxy-1H-quinazolin-4-one]	
2630	14.8	813		COc1cc2[nH]c(N(C)Cc3cccc(C4=NCCO4)c3)nc(=O)c2c(OC)c1OC [2-{[3-(4,5-dihydro-oxazol-2-yl)-benzyl]-methyl-amino}-5,6,7-trimethoxy-1H-quinazolin-4-one]	
794	6.92	7.08		COc1cc2[nH]c(N(C)Cc3ccc(OCC(O)CO)cc3)nc(=O)c2c(C)c1OC (centres unmarked) [2-{[4-(2,3-dihydroxy-propoxy)-benzyl]-methyl-amino}-6,7-dimethoxy-5-methyl-1H-quinazolin-4-one]	
5370	7.41	5.37		COc1cc2[nH]c(N(C)Cc3cccc(CN4CCC(OC)C4)c3)nc(=O)c2c(OC)c1OC (centres unmarked) [5,6,7-trimethoxy-2-{[3-(3-methoxy-pyrrolidin-1-ylmethyl)-benzyl]-methyl-amino}-1H-quinazolin-4-one]	
2630	14.8	3.24		COc1cc2[nH]c(N(C)Cc3ccc4c(c3)CN(C)C4)nc(=O)c2c(C)c1OC [6,7-Dimethoxy-5-methyl-2-[methyl-(2-methyl-2,3-dihydro-1H-isoindol-5-ylmethyl)-amino]-1H-quinazolin-4-one]	
			175.4 to 177.2	COc1cc2[nH]c(N(C)Cc3cccc(NC4=NCCC4)c3)nc(=O)c2c(C)c1OC [Example G-42, 2-{[3-(4,5-Dihydro-3H-pyrrol-2-ylamino)-benzyl]-methyl-amino}-6,7-dimethoxy-5-methyl-1H-quinazolin-4-one]	
			207 to 209	COc1cc2[nH]c(N(C)Cc3cccc(NC4=NCCC4)c3)nc(=O)c2c(OC)c1OC [Example G-43, 2-{[3-(4,5-Dihydro-3H-pyrrol-2-ylamino)-benzyl]-methyl-amino}-5,6,7-trimethoxy-1H-quinazolin-4-one]	
			165.5 to 166.5	COc1cc2nc(N(C)Cc3cccc(N4CCCC4=O)c3)[nH]c(=O)c2c(OC)c1OC [Example H-1, 5,6,7-Trimethoxy-2-{methyl-[3-(2-oxo-pyrrolidin-1-yl)-benzyl]-amino}-1H-quinazolin-4-one]	
			145 to 148	COc1cc2nc(N(C)Cc3cccc(C4=NCCN4C)c3)[nH]c(=O)c2c(C)c1OC [Example H-2, 6,7-Dimethoxy-5-methyl-2-{methyl-[3-(1-methyl-4,5-dihydro-1H-imidazol-2-yl)-benzyl]-amino}-1H-quinazolin-4-one]	
			155.7 to 158	COc1cc2nc(N(C)Cc3cccc(C4CCN(C)CC4)c3)[nH]c(=O)c2c(C)c1OC [Example H-3, 6,7-Dimethoxy-5-methyl-2-{methyl-[3-(1-methyl-piperidin-4-yl)-benzyl]-amino}-1H-quinazolin-4-one]	
			177 to 180	COc1cc2[nH]c(N(C)Cc3cccc(N4CCN=C4C)c3)nc(=O)c2c(C)c1OC [Example H-6, 6,7-Dimethoxy-5-methyl-2-{methyl-[3-(2-methyl-4,5-dihydro-imidazol-1-yl)-benzyl]-amino}-1H-quinazolin-4-one]	
				COc1cc2nc(N3CCN(C(=O)c4ccco4)CC3)nc(N)c2cc1OC [prazosin]	inhibition of hypogastric nerve (HGN) stimulation-induced increases in intraurethral pressure (IUP) (anesthetized dog): inhibited increases in IUP and DAP in similar fashion; inhibition of phenylephrine-induced increases in diastolic aortic pressure (DAP) (anesthetized dog): inhibited increases in IUP and DAP in similar fashion
